This is an account of results in ChEMBL document CHEMBL1149518, “High affinity inhibitors of the dopamine transporter (DAT): novel biotinylated ligands for conjugation to quantum dots” (Bioorg Med Chem Lett, 2006).

The experiment deals with Sodium-dependent dopamine transporter (Homo sapiens, UniProt Q01959). In words: Inhibition of [3H]dopamine uptake at dopamine transporter.
Sodium-dependent dopamine transporter, sequence (Q01959 whole entry): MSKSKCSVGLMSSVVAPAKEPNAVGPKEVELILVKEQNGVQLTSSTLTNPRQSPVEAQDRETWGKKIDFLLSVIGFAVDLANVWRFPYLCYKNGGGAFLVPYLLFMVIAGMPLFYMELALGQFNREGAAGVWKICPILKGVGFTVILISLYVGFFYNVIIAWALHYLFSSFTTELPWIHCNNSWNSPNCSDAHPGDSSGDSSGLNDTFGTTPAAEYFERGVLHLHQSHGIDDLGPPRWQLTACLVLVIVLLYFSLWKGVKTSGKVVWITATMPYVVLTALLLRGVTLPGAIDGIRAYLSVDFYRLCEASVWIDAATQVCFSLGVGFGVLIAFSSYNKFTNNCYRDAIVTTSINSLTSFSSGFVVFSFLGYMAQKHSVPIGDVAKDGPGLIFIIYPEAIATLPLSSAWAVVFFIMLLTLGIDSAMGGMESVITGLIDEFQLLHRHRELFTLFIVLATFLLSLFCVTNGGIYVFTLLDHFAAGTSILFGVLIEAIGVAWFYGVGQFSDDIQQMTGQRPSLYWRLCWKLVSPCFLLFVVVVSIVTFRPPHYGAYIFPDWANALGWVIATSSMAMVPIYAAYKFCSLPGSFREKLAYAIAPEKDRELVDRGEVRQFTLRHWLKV

Compound `O=C(CCCCCCCCCCS)Nc1ccc(CCCN2CCN(CCOC(c3ccc(F)cc3)c3ccc(F)cc3)CC2)cc1` came in with a 50% inhibitory concentration (IC50) of 18 nM. In other words, the double-digit nanomolar range. Then `O=C(CCCCCCCCCCS)Nc1ccc(CCCN2CCN(CCOC(c3ccccc3)c3ccccc3)CC2)cc1`, with 10 nM.

One may read the IC50 as the concentration that gives 50% inhibition. A high value points to a need for much substance.
